Assay results reported in patent publication US20260000694A1, “METHODS AND COMPOSITIONS RELATED TO PREBIOTIC FORMULATIONS USEFUL IN PROMOTING UROGENITAL HEALTH” (KIMBERLY-CLARK WORLDWIDE, INC., priority 2022, published 2026).
Where “and” joins values, the source holds several entries; their conditions need not be identical. Equal values may be shown once.

Key:
Format in all cases: cell-based
[1] = tested on: Lactobacillus crispatus KC18-1173-1; assay: Competition (co-culture) assay: recovery of L. crispatus after exposure to prebiotics; details: 48 hours, one value per replicate; for L. crispatus Δ on MRS: change vs start, background growth in media without prebiotic subtracted, co-culture; for L. crispatus Recovered on MRS: co-culture with S. anginosus in API 50 CHL media with prebiotic (% w/v in label), anaerobic 37° C.
Description: (§1) The methods used herein were adapted from Vongsa et al. The method used in this particular example is as follows: • 1. A stock was created using a single prebiotic, a prebiotic mixture, or the positive control (glucose) in API 50 CHL media (Biomerieux, Marcy-l'Étoile, France). API 50 CHL media containing minimal amounts of carbon for growth and bromocresol purple as a pH indicator of fermentation. The stock media was filter-sterilized with a 0.22 μM filter and store at 4-6° C. • 2. From a freezer stock, the bacteria were subcultured twice into De Man, Rogosa, and Sharpe (MRS) broth (BD Difco, Becton Dickinson, Franklin Lakes, NJ) and incubated at 37° C. anaerobically overnight until stationary. • 3. The second MRS broth subculture was plated onto an MRS agar plate for Lactobacillus crispatus KC18-1173-1 or blood agar for Streptococcus anginosus KC18-1131-3B and incubated at 37° C. anaerobically overnight until stationary. • 4. A bacterial suspension was created for each bacterium using a sterile tipped swab to transfer colonies into API suspension media (Biomerieux, Marcy-l'Étoile, France) to reach the turbidity of a 2 MacFarland standard. • 5. The starting culture was enumerated. • 6. 9.8 mL of the prebiotic media was added into a sterile 15 mL conical tube. • 7. 100 μL of each prepared bacterial suspension was added to the media, and it was incubated anaerobically at 37° C. for 48 hours. • 8. 100 μL were harvested from each tube containing the bacteria and prebiotic media, it was serially diluted, and plated onto MRS agar and tryptic soy agar (TSA). • 9. The bacteria were enumerated on MRS agar (both L. crispatus and S. anginosus). Small colonies were counted as S. anginosus, and large colonies were counted as L. crispatus. • 10. S. anginosus was enumerated on TSA plates. […] Background growth of bacteria in the negative control (CHL media without prebiotics) was subtracted from the growth recovered in the presence of the prebiotic mixture. • 12. Statistical analysis was performed using Student's t-test. The significance level was set at p<0.05.

[2] = tested on: Lactobacillus crispatus KC18-1173-1 to Streptococcus anginosus KC18-1131-3B; assay: Competition (co-culture) assay: ratio of L. crispatus to S. anginosus recovered; details: average CFU/mL L. crispatus on MRS divided by average CFU/mL S. anginosus on TSA, 48 hours
Description: as §1

[3] = tested on: Streptococcus anginosus KC18-1131-3B; assay: Competition (co-culture) assay: recovery of S. anginosus after exposure to prebiotics; details: 48 hours, one value per replicate; for S. anginosus Δ on MRS / S. anginosus Δ on TSA: change vs start, background growth in media without prebiotic subtracted, co-culture; for S. anginosus Recovered on MRS / S. anginosus Recovered on TSA: co-culture with L. crispatus in API 50 CHL media with prebiotic (% w/v in label), anaerobic 37° C.
Description: as §1

Row | SMILES | L. crispatus Δ on MRS [1] | L. crispatus Recovered on MRS [1] | Ratio (L. crispatus/S. anginosus) [2] | S. anginosus Δ on MRS [3] | S. anginosus Δ on TSA [3] | S. anginosus Recovered on MRS [3] | S. anginosus Recovered on TSA [3]
1 | OC[C@H]1O[C@@H](O[C@@H]2[C@@H](CO)OC(O)(CO)[C@H]2O)[C@H](O)[C@@H](O)[C@H]1O (mixture of isomers) [Lactulose (2.0), Lactulose] | 2.38 Log CFU/mL and 2.80 Log CFU/mL and 2.58 Log CFU/mL and 2.60 Log CFU/mL and 2.69 Log CFU/mL | 7.74 Log CFU/mL and 8.10 Log CFU/mL and 8.28 Log CFU/mL and 8.30 Log CFU/mL and 8.11 Log CFU/mL | 37,556 | −6.73 Log CFU/mL and −2.23 Log CFU/mL and −2.53 Log CFU/mL and −6.61 Log CFU/mL and −6.08 Log CFU/mL | −3.85 Log CFU/mL and −2.17 Log CFU/mL and −3.70 Log CFU/mL and −3.74 Log CFU/mL and −3.67 Log CFU/mL | 0.00 Log CFU/mL (3×) and 4.11 Log CFU/mL and 3.40 Log CFU/mL | 2.85 Log CFU/mL and 4.23 Log CFU/mL and 2.00 Log CFU/mL and 2.74 Log CFU/mL and 2.78 Log CFU/mL
2 | OC[C@H]1O[C@@](CO)(OC[C@@]2(O[C@H]3O[C@H](CO)[C@@H](O)[C@H](O)[C@H]3O)O[C@H](CO)[C@@H](O)[C@@H]2O)[C@@H](O)[C@@H]1O [1-Kestose (2.0), 1-Kestose] | 2.59 Log CFU/mL and 3.60 Log CFU/mL and 2.30 Log CFU/mL and 1.95 Log CFU/mL and 2.74 Log CFU/mL | 7.95 Log CFU/mL and 8.90 Log CFU/mL and 8.00 Log CFU/mL and 7.65 Log CFU/mL and 8.16 Log CFU/mL | 976,001 | −6.61 Log CFU/mL and −6.08 Log CFU/mL and −5.03 Log CFU/mL and −3.64 Log CFU/mL and −3.63 Log CFU/mL | −3.74 Log CFU/mL and −6.45 Log CFU/mL and −4.15 Log CFU/mL and −4.00 Log CFU/mL (2×) | 0.00 Log CFU/mL (2×) and 1.70 Log CFU/mL and 2.70 Log CFU/mL and 2.30 Log CFU/mL | 2.74 Log CFU/mL and 0.00 Log CFU/mL and 2.54 Log CFU/mL and 2.40 Log CFU/mL and 1.70 Log CFU/mL
3 | OC[C@@H](O)[C@@H](O[C@@H]1O[C@H](CO)[C@H](O)[C@H](O)[C@H]1O)[C@H](O)[C@@H](O)CO [D-Lactitol (2.0), D-Lactitol] | 0.77 Log CFU/mL and 0.66 Log CFU/mL | 5.90 Log CFU/mL and 6.74 Log CFU/mL | 0 | 0.75 Log CFU/mL and 0.69 Log CFU/mL | 0.58 Log CFU/mL and 0.52 Log CFU/mL | 7.45 Log CFU/mL and 7.54 Log CFU/mL | 7.43 Log CFU/mL and 7.65 Log CFU/mL
4 | OC[C@@H](O)[C@@H](O[C@H]1O[C@H](CO)[C@@H](O)[C@H](O)[C@H]1O)[C@H](O)[C@@H](O)CO [Maltitol (2.0), Maltitol] | 0.35 Log CFU/mL and −0.08 Log CFU/mL | 5.48 Log CFU/mL and 6.00 Log CFU/mL | 0 | −0.12 Log CFU/mL and −0.37 Log CFU/mL | 0.41 Log CFU/mL and 0.47 Log CFU/mL | 6.58 Log CFU/mL and 6.48 Log CFU/mL | 7.26 Log CFU/mL and 7.60 Log CFU/mL
5 | O=C(CO)[C@@H](O)[C@H](O)[C@H](O)CO[C@H]1O[C@H](CO)[C@@H](O)[C@H](O)[C@H]1O [Palatinose ™ (2.0), 6-O-α-D-glucopyranosyl-D-fructose] | 2.10 Log CFU/mL and 2.30 Log CFU/mL and 2.77 Log CFU/mL and 3.24 Log CFU/mL and 1.90 Log CFU/mL | 7.93 Log CFU/mL and 8.00 Log CFU/mL and 8.19 Log CFU/mL and 8.37 Log CFU/mL and 7.98 Log CFU/mL | 2,681 | −1.83 Log CFU/mL and −2.08 Log CFU/mL and −2.03 Log CFU/mL and −1.82 Log CFU/mL and −1.69 Log CFU/mL | −1.48 Log CFU/mL and −2.41 Log CFU/mL and −2.00 Log CFU/mL and −2.42 Log CFU/mL and 2.39 Log CFU/mL | 4.78 Log CFU/mL and 4.00 Log CFU/mL and 4.70 Log CFU/mL and 4.88 Log CFU/mL and 5.16 Log CFU/mL | 5.00 Log CFU/mL and 4.04 Log CFU/mL and 4.70 Log CFU/mL and 4.53 Log CFU/mL and 4.74 Log CFU/mL
6 | CO[C@H]1O[C@H](CO)[C@@H](O)[C@H](O)[C@H]1O [α-Methyl-D-Glucoside (2.0), α-Methyl-D-Glucoside] | 1.90 Log CFU/mL and 1.39 Log CFU/mL and 0.70 Log CFU/mL | 7.20 Log CFU/mL and 6.52 Log CFU/mL and 6.78 Log CFU/mL | 0 | −0.33 Log CFU/mL and 0.45 Log CFU/mL and 0.55 Log CFU/mL | 0.34 Log CFU/mL and 0.62 Log CFU/mL and 0.41 Log CFU/mL | 5.60 Log CFU/mL and 7.15 Log CFU/mL and 7.40 Log CFU/mL | 6.04 Log CFU/mL and 7.47 Log CFU/mL and 7.54 Log CFU/mL
